Results as given in US10202361B2, “Pyridazinones as herbicides” (E I DU PONT DE NEMOURS AND COMPANY, priority 2014, dated 2019).

Tests used:
Assay in all cases: Test D pre-/postemergence controlled growth environment herbicide test
Format in all cases: in vivo
Conditions in all cases: scale 0 to 100
[1] = system: barley, spring (spring barley, Hordeum vulgare)
In short: (§1)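 Pre-emergence treatment on silt loam soil and post-emergence treatment of 1- to 4-leaf plants (2–18 cm) in peat-based medium, compounds in a non-phytotoxic solvent with surfactant. Visual rating against untreated controls after 14–21 d in a controlled environment, scale 0 (no effect) to 100 (complete control).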

[2] = system: barley, winter (winter barley, Hordeum vulgare)
In short: as §1

[3] = system: canarygrass (Phalaris minor)
In short: as §1

[4] = system: deadnettle (henbit deadnettle, Lamium amplexicaule)
In short: as §1

[5] = system: downy bromegrass (Bromus tectorum)
In short: as §1

[6] = system: field violet (Viola arvensis)
In short: as §1

[7] = system: foxtail, green (green foxtail, Setaria viridis)
In short: as §1

kochia (Kochia scoparia) = system: kochia (Kochia scoparia)
In short: as §1

[8] = system: oat, wild (wild oat, Avena fatua)
In short: as §1

[9] = system: oilseed rape (Brassica napus)
In short: as §1

[10] = system: ryegrass, Italian (Italian ryegrass, Lolium multiflorum)
In short: as §1

Question: Which Plant response rating ([1]; Postemergence, 16 g ai/ha) does the source give for `Cc1cc(=O)n(-c2ccc(F)cc2)nc1Oc1ccnc(C(F)(F)F)c1` [Compound 14, 2-(4-fluorophenyl)-5-methyl-6-[[2-(trifluoromethyl)-4-pyridinyl]oxy]-3 (2H)-pyridazinone] here?
Answer: 5

Question: And the Plant response rating ([1]; Postemergence, 31 g ai/ha)?
Answer: 10

Question: What about the Plant response rating ([1]; Postemergence, 62 g ai/ha) of the same compound?
Answer: 15

Question: What about the Plant response rating ([1]; Postemergence, 125 g ai/ha) of the same compound?
Answer: 20

Question: And the Plant response rating ([1]; Postemergence, 250 g ai/ha)?
Answer: 20

Question: What about the Plant response rating ([1]; Preemergence, 16 g ai/ha) of the same compound?
Answer: 5

Question: What about the Plant response rating ([1]; Preemergence, 31 g ai/ha) of the same compound?
Answer: 10

Question: What about the Plant response rating ([1]; Preemergence, 62 g ai/ha) of the same compound?
Answer: 5

Question: What about the Plant response rating ([1]; Preemergence, 125 g ai/ha) of the same compound?
Answer: 15

Question: What about the Plant response rating ([1]; Preemergence, 250 g ai/ha) of the same compound?
Answer: 5

Question: And the Plant response rating ([2]; Postemergence, 16 g ai/ha)?
Answer: 10

Question: What about the Plant response rating ([2]; Postemergence, 31 g ai/ha) of the same compound?
Answer: 15

Question: And the Plant response rating ([2]; Postemergence, 62 g ai/ha)?
Answer: 20

Question: And the Plant response rating ([2]; Postemergence, 125 g ai/ha)?
Answer: 20

Question: And the Plant response rating ([2]; Postemergence, 250 g ai/ha)?
Answer: 25

Question: And the Plant response rating ([2]; Preemergence, 16 g ai/ha)?
Answer: 15

Question: What about the Plant response rating ([2]; Preemergence, 31 g ai/ha) of the same compound?
Answer: 5

Question: What about the Plant response rating ([2]; Preemergence, 62 g ai/ha) of the same compound?
Answer: 5

Question: And the Plant response rating ([2]; Preemergence, 125 g ai/ha)?
Answer: 5

Question: And the Plant response rating ([2]; Preemergence, 250 g ai/ha)?
Answer: 5

Question: What about the Plant response rating ([3]; Postemergence, 16 g ai/ha) of the same compound?
Answer: 15

Question: And the Plant response rating ([3]; Postemergence, 31 g ai/ha)?
Answer: 15

Question: And the Plant response rating ([3]; Postemergence, 62 g ai/ha)?
Answer: 15

Question: What about the Plant response rating ([3]; Postemergence, 125 g ai/ha) of the same compound?
Answer: 20

Question: What about the Plant response rating ([3]; Postemergence, 250 g ai/ha) of the same compound?
Answer: 25

Question: What about the Plant response rating ([3]; Preemergence, 16 g ai/ha) of the same compound?
Answer: 5

Question: And the Plant response rating ([3]; Preemergence, 31 g ai/ha)?
Answer: 5

Question: And the Plant response rating ([3]; Preemergence, 62 g ai/ha)?
Answer: 20

Question: And the Plant response rating ([3]; Preemergence, 125 g ai/ha)?
Answer: 35

Question: What about the Plant response rating ([3]; Preemergence, 250 g ai/ha) of the same compound?
Answer: 80

Question: And the Plant response rating ([4]; Postemergence, 16 g ai/ha)?
Answer: 50

Question: And the Plant response rating ([4]; Postemergence, 31 g ai/ha)?
Answer: 60

Question: And the Plant response rating ([4]; Postemergence, 62 g ai/ha)?
Answer: 60

Question: What about the Plant response rating ([4]; Postemergence, 125 g ai/ha) of the same compound?
Answer: 65

Question: And the Plant response rating ([4]; Postemergence, 250 g ai/ha)?
Answer: 80

Question: And the Plant response rating ([4]; Preemergence, 16 g ai/ha)?
Answer: 60

Question: What about the Plant response rating ([4]; Preemergence, 31 g ai/ha) of the same compound?
Answer: 15

Question: And the Plant response rating ([4]; Preemergence, 62 g ai/ha)?
Answer: 40

Question: And the Plant response rating ([4]; Preemergence, 125 g ai/ha)?
Answer: 65

Question: What about the Plant response rating ([4]; Preemergence, 250 g ai/ha) of the same compound?
Answer: 100

Question: And the Plant response rating ([5]; Postemergence, 16 g ai/ha)?
Answer: 10

Question: What about the Plant response rating ([5]; Postemergence, 31 g ai/ha) of the same compound?
Answer: 10

Question: And the Plant response rating ([5]; Postemergence, 62 g ai/ha)?
Answer: 10

Question: And the Plant response rating ([5]; Postemergence, 125 g ai/ha)?
Answer: 20

Question: What about the Plant response rating ([5]; Postemergence, 250 g ai/ha) of the same compound?
Answer: 20

Question: And the Plant response rating ([5]; Preemergence, 16 g ai/ha)?
Answer: 0

Question: And the Plant response rating ([5]; Preemergence, 31 g ai/ha)?
Answer: 0

Question: What about the Plant response rating ([5]; Preemergence, 62 g ai/ha) of the same compound?
Answer: 0

Question: What about the Plant response rating ([5]; Preemergence, 125 g ai/ha) of the same compound?
Answer: 0

Question: What about the Plant response rating ([5]; Preemergence, 250 g ai/ha) of the same compound?
Answer: 0

Question: And the Plant response rating ([6]; Postemergence, 16 g ai/ha)?
Answer: 60

Question: What about the Plant response rating ([6]; Postemergence, 31 g ai/ha) of the same compound?
Answer: 70

Question: What about the Plant response rating ([6]; Postemergence, 62 g ai/ha) of the same compound?
Answer: 65

Question: What about the Plant response rating ([6]; Postemergence, 125 g ai/ha) of the same compound?
Answer: 100

Question: And the Plant response rating ([6]; Postemergence, 250 g ai/ha)?
Answer: 100

Question: And the Plant response rating ([6]; Preemergence, 16 g ai/ha)?
Answer: 85

Question: What about the Plant response rating ([6]; Preemergence, 31 g ai/ha) of the same compound?
Answer: 95

Question: What about the Plant response rating ([6]; Preemergence, 62 g ai/ha) of the same compound?
Answer: 100

Question: And the Plant response rating ([6]; Preemergence, 125 g ai/ha)?
Answer: 95

Question: What about the Plant response rating ([6]; Preemergence, 250 g ai/ha) of the same compound?
Answer: 100

Question: What about the Plant response rating ([7]; Postemergence, 16 g ai/ha) of the same compound?
Answer: 30

Question: What about the Plant response rating ([7]; Postemergence, 31 g ai/ha) of the same compound?
Answer: 10

Question: And the Plant response rating ([7]; Postemergence, 62 g ai/ha)?
Answer: 20

Question: What about the Plant response rating ([7]; Postemergence, 125 g ai/ha) of the same compound?
Answer: 15

Question: And the Plant response rating ([7]; Postemergence, 250 g ai/ha)?
Answer: 15

Question: What about the Plant response rating ([7]; Preemergence, 16 g ai/ha) of the same compound?
Answer: 0

Question: What about the Plant response rating ([7]; Preemergence, 31 g ai/ha) of the same compound?
Answer: 15

Question: And the Plant response rating ([7]; Preemergence, 62 g ai/ha)?
Answer: 40

Question: What about the Plant response rating ([7]; Preemergence, 125 g ai/ha) of the same compound?
Answer: 70

Question: What about the Plant response rating ([7]; Preemergence, 250 g ai/ha) of the same compound?
Answer: 100

Question: And the Plant response rating (kochia (Kochia scoparia); Postemergence, 16 g ai/ha)?
Answer: 60

Question: What about the Plant response rating (kochia (Kochia scoparia); Postemergence, 31 g ai/ha) of the same compound?
Answer: 60

Question: And the Plant response rating (kochia (Kochia scoparia); Postemergence, 62 g ai/ha)?
Answer: 65

Question: And the Plant response rating (kochia (Kochia scoparia); Postemergence, 125 g ai/ha)?
Answer: 85

Question: And the Plant response rating (kochia (Kochia scoparia); Postemergence, 250 g ai/ha)?
Answer: 90

Question: And the Plant response rating (kochia (Kochia scoparia); Preemergence, 16 g ai/ha)?
Answer: 35

Question: And the Plant response rating (kochia (Kochia scoparia); Preemergence, 31 g ai/ha)?
Answer: 65

Question: And the Plant response rating (kochia (Kochia scoparia); Preemergence, 62 g ai/ha)?
Answer: 95

Question: And the Plant response rating (kochia (Kochia scoparia); Preemergence, 125 g ai/ha)?
Answer: 70

Question: What about the Plant response rating (kochia (Kochia scoparia); Preemergence, 250 g ai/ha) of the same compound?
Answer: 100

Question: What about the Plant response rating ([8]; Postemergence, 16 g ai/ha) of the same compound?
Answer: 10

Question: And the Plant response rating ([8]; Postemergence, 31 g ai/ha)?
Answer: 10

Question: And the Plant response rating ([8]; Postemergence, 62 g ai/ha)?
Answer: 15

Question: And the Plant response rating ([8]; Postemergence, 125 g ai/ha)?
Answer: 20

Question: And the Plant response rating ([8]; Postemergence, 250 g ai/ha)?
Answer: 30

Question: What about the Plant response rating ([8]; Preemergence, 16 g ai/ha) of the same compound?
Answer: 0

Question: What about the Plant response rating ([8]; Preemergence, 31 g ai/ha) of the same compound?
Answer: 0

Question: What about the Plant response rating ([8]; Preemergence, 62 g ai/ha) of the same compound?
Answer: 0

Question: And the Plant response rating ([8]; Preemergence, 125 g ai/ha)?
Answer: 10

Question: And the Plant response rating ([8]; Preemergence, 250 g ai/ha)?
Answer: 20

Question: And the Plant response rating ([9]; Postemergence, 16 g ai/ha)?
Answer: 25

Question: What about the Plant response rating ([9]; Postemergence, 31 g ai/ha) of the same compound?
Answer: 50

Question: And the Plant response rating ([9]; Postemergence, 62 g ai/ha)?
Answer: 15

Question: And the Plant response rating ([9]; Postemergence, 125 g ai/ha)?
Answer: 45

Question: And the Plant response rating ([9]; Postemergence, 250 g ai/ha)?
Answer: 55

Question: And the Plant response rating ([9]; Preemergence, 16 g ai/ha)?
Answer: 0

Question: What about the Plant response rating ([9]; Preemergence, 31 g ai/ha) of the same compound?
Answer: 5

Question: What about the Plant response rating ([9]; Preemergence, 62 g ai/ha) of the same compound?
Answer: 10

Question: And the Plant response rating ([9]; Preemergence, 125 g ai/ha)?
Answer: 15

Question: And the Plant response rating ([9]; Preemergence, 250 g ai/ha)?
Answer: 70

Question: What about the Plant response rating ([10]; Postemergence, 16 g ai/ha) of the same compound?
Answer: 5

Question: And the Plant response rating ([10]; Postemergence, 31 g ai/ha)?
Answer: 5

Question: What about the Plant response rating ([10]; Postemergence, 62 g ai/ha) of the same compound?
Answer: 10

Question: And the Plant response rating ([10]; Postemergence, 125 g ai/ha)?
Answer: 15

Question: What about the Plant response rating ([10]; Postemergence, 250 g ai/ha) of the same compound?
Answer: 15

Question: And the Plant response rating ([10]; Preemergence, 16 g ai/ha)?
Answer: 0

Question: What about the Plant response rating ([10]; Preemergence, 31 g ai/ha) of the same compound?
Answer: 0

Question: And the Plant response rating ([10]; Preemergence, 62 g ai/ha)?
Answer: 0

Question: And the Plant response rating ([10]; Preemergence, 125 g ai/ha)?
Answer: 15

Question: What about the Plant response rating ([10]; Preemergence, 250 g ai/ha) of the same compound?
Answer: 25
